Experimental data published in PMC9269301, “Phytochemical Analysis, Antioxidant, Antimicrobial, and Cytotoxic Activity of Different Extracts of Xanthoparmelia stenophylla Lichen from Stara Planina, Serbia” (Plants, 2022).
≈ marks a conversion by molar mass, not a printed value. Marks after values point to notes of the source that are not given here.

What was measured:
E. coli (isolate) = assay: Microdilution with resazurin, antibacterial; format: cell-based, Escherichia coli; details: Escherichia coli, antibiotics
Experimental: (§1) The tested methanol, acetone, and n-hexane extracts, as well as the component (usnic acid) of X. stenophylla, were dissolved in 10% dimethyl sulfoxide (DMSO) and then diluted into the nutrient liquid medium. DMSO was obtained from Acros Organics (Fair Lawn, NJ, USA). Resazurin was obtained from Alfa Aesar GmbH & Co. (KG, Karlsruhe, Germany).
(§2) The antimicrobial activity of the extracts and components was tested against 19 microorganisms. The experiment involved 15 strains of bacteria (i.e., 6 standard strains: Staphylococcus aureus ATCC 6538, Bacillus subtilis ATCC 6633, Proteus mirabilis ATCC 12453, Pseudomonas aeruginosa ATCC 27853, Klebsiella pneumoniae ATCC 70063, and Escherichia coli ATCC 25922; 9 isolates: Staphylococcus aureus, Escherichia coli, Salmonella enterica, Salmonella Typhimurium, Proteus mirabilis, Klebsiella pneumoniae, Pseudomonas aeruginosa, Bacillus subtilis, and Bacillus cereus). In addition, four fungal strains (i.e., two standard strains: Candida albicans ATCC 10231 and Aspergillus niger ATCC 16888; two isolates: Saccharomyces cerevisiae and Candida albicans) were tested. All isolates were a generous gift from the Institute of Public Health, Kragujevac. The other microorganisms were provided from the collection held by the Microbiology Laboratory Faculty of Science, University of Kragujevac.
(§3) The bacterial suspensions were prepared by the direct colony method. The turbidity of the initial suspension was adjusted using a densitometer (DEN-1, BioSan, Riga, Latvia). When adjusted to the turbidity of the 0.5 McFarland’s standard (Andrews, 2005) the bacteria suspension contained approximately 10^8 colony-forming units (CFU)/mL, and the suspension of yeast contained 10^6 CFU/mL; 1:100 dilutions of the initial suspension were additionally prepared in sterile 0.85% saline. The suspensions of fungal spores were prepared by gentle stripping of spores from slopes with growing mycelia. The resulting suspensions were 1:1000 diluted in sterile 0.85% saline.
(§4) Antimicrobial activity was tested by determining the minimum inhibitory concentrations (MICs) and minimum microbicidal concentrations (MBCs) using the microdilution plate method with resazurin [56]. The 96-well plates were prepared by dispensing 100 μL of Mueller–Hinton broth for bacteria and Sabouard broth for fungi into each well. A 10 μL aliquot from the stock solution of the tested extract or component was added to the first row of the plate. Then, two-fold serial dilutions were performed using a multichannel pipette. The obtained concentration range was from 10 to 0.08 mg/mL. The method is described in detail in [76].
(§5) Each test included growth control and sterility control.
(§6) Minimum microbicidal concentrations were determined by plating 10 μL of samples from wells where no indicator color change or no mycelia growth was recorded on a nutrient agar medium. At the end of the incubation period, the lowest concentration with no growth (no colony) was defined as the minimum microbicidal concentration.

E. coli ATCC 25922 = assay: Microdilution with resazurin, antibacterial; format: cell-based, Escherichia coli; details: Escherichia coli, ATCC25922, antibiotics
Experimental: as §1, §2, §3, §4, §5, §6

S. enterica (isolate) = assay: microbe, parasite or virus in culture; format: cell-based, Salmonella enterica; details: Salmonella enterica, S. enterica, antibiotics
Experimental: as §1, §2, §3, §4, §5, §6

S. Typhimurium (isolate) = assay: Microdilution with resazurin, antibacterial; format: cell-based, Salmonella Typhimurium; details: Salmonella enterica, antibiotics
Experimental: as §1, §2, §3, §4, §5, §6

P. mirabilis (isolate) = assay: Microdilution with resazurin, antibacterial; format: cell-based, Proteus mirabilis; details: Proteus mirabilis, antibiotics
Experimental: as §1, §2, §3, §4, §5, §6

P. mirabilis ATCC 12453 = assay: Microdilution with resazurin, antibacterial; format: cell-based, Proteus mirabilis; details: Proteus mirabilis, ATCC12453, antibiotics
Experimental: as §1, §2, §3, §4, §5, §6

K. pneumoniae (isolate) = assay: Microdilution with resazurin, antibacterial; format: cell-based, Klebsiella pneumoniae; details: Klebsiella pneumoniae, antibiotics
Experimental: as §1, §2, §3, §4, §5, §6

K. pneumoniae ATCC 70063 = assay: Microdilution with resazurin, antibacterial; format: cell-based, Klebsiella pneumoniae; details: Klebsiella pneumoniae, ATCC70063, antibiotics
Experimental: as §1, §2, §3, §4, §5, §6

P. aeruginosa (isolate) = assay: Microdilution with resazurin, antibacterial; format: cell-based, Pseudomonas aeruginosa; details: Pseudomonas aeruginosa, antibiotics
Experimental: as §1, §2, §3, §4, §5, §6

P. aeruginosa ATCC 27853 = assay: Microdilution with resazurin, antibacterial; format: cell-based, Pseudomonas aeruginosa; details: Pseudomonas aeruginosa, ATCC27853, antibiotics
Experimental: as §1, §2, §3, §4, §5, §6

B. subtilis (isolate) = assay: Microdilution with resazurin, antibacterial; format: cell-based, Bacillus subtilis; details: Bacillus subtilis, antibiotics
Experimental: as §1, §2, §3, §4, §5, §6

B. subtilis ATCC 6633 = assay: Microdilution with resazurin, antibacterial; format: cell-based, Bacillus subtilis; details: Bacillus subtilis, ATCC6633, antibiotics
Experimental: as §1, §2, §3, §4, §5, §6

B. cereus (isolate) = assay: Microdilution with resazurin, antibacterial; format: cell-based, Bacillus cereus; details: Bacillus cereus, antibiotics
Experimental: as §1, §2, §3, §4, §5, §6

S. aureus (isolate) = assay: Microdilution with resazurin, antibacterial; format: cell-based, Staphylococcus aureus; details: Staphylococcus aureus, antibiotics
Experimental: as §1, §2, §3, §4, §5, §6

S. aureus ATCC 6538 = assay: Microdilution with resazurin, antibacterial; format: cell-based, Staphylococcus aureus; details: Staphylococcus aureus, ATCC6538, antibiotics
Experimental: as §1, §2, §3, §4, §5, §6

[1] = DPPH radical scavenging activity; format: biochemical; details: mean ± SD, triplicate
Experimental: All chemicals for the antioxidant activity test were purchased from Sigma Aldrich. All measurements were conducted in triplicate, and a Shimadzu UV-1800 spectrophotometer was used for all measurements during antioxidant activity experiments. The IC50 value was used for comparing different radical scavenging effects between investigated extracts, isolated compounds, and positive controls. […] [71] with certain modifications. […] The solution was prepared ex tempore and stored in a tinted bottle in the refrigerator until the experiments were performed. […] The reaction mixture was vortexed and allowed to incubate in the dark for one hour, after which the absorbance was measured at 517 nm relative to the blank. […] Ac stands for absorbance of the control (which contains all reagents, except the tested extract or compound), and As is the absorbance of the sample.

[2] = Hydroxyl radical scavenging activity (2-deoxyribose); format: biochemical; details: mean ± SD, triplicate
Experimental: All chemicals for the antioxidant activity test were purchased from Sigma Aldrich. All measurements were conducted in triplicate, and a Shimadzu UV-1800 spectrophotometer was used for all measurements during antioxidant activity experiments. The IC50 value was used for comparing different radical scavenging effects between investigated extracts, isolated compounds, and positive controls. The ability to inhibit non-site-specific peroxidation mediated by hydroxyl radicals for […], and XSH was determined using the method previously described in the literature. During the experiment, in a reaction mixture that contained 500 μL of 5.6 mM 2-deoxy-D-ribose in KH2PO4-NaOH buffer (50 mM, pH 7.4), 100 μL of 1.0 mM aqueous ascorbic acid, 100 μL of 1.0 mM H2O2, and 200 μL of premixed solution of 100 μM FeCl3 and […] EDTA (1:1 v/v), 100 μL of extract dissolved in water was added. The tubes were vigorously shaken, vortexed, and incubated for 30 min at 50 °C. […] The mixture was vortexed again and heated in a water bath for 30 min at 50 °C. […] Ac stands for absorbance of the control (which contains all reagents, except the tested extract or compound), and As is the absorbance of the sample.

[3] = Superoxide anion radical scavenging activity (NBT/NADH/PMS); format: biochemical; details: mean ± SD, triplicate
Experimental: All chemicals for the antioxidant activity test were purchased from Sigma Aldrich. All measurements were conducted in triplicate, and a Shimadzu UV-1800 spectrophotometer was used for all measurements during antioxidant activity experiments. The IC50 value was used for comparing different radical scavenging effects between investigated extracts, isolated compounds, and positive controls. […] [75] with modifications. […] To initiate the reaction, 0.1 mL of phenazine methosulfate (PMS) solution ([…] in 0.1 M phosphate buffer at pH 7.4) was added to each tube. The mixture was incubated at room temperature for 5 min, and then the absorbance was measured at 560 nm relative to the blank. Ascorbic acid, gallic acid, and Trolox were used as positive controls, and a decrease in absorbance indicated increased superoxide anion radical scavenging activity. […] Ac stands for absorbance of the control (which contains all reagents, except the tested extract or compound), and As is the absorbance of the sample.

S. cerevisiae (isolate) = assay: Microdilution with resazurin, antifungal; format: cell-based, Saccharomyces cerevisiae; details: Saccharomyces cerevisiae, antimycotics
Experimental: as §1, §2, §3
as §4, with “[76]. […]” for “[76].”
Minimum microbicidal concentrations were determined by plating 10 μL of samples from wells where no indicator color change or no mycelia growth was recorded on a nutrient agar medium. […]

C. albicans (isolate) = assay: Microdilution with resazurin, antifungal; format: cell-based, Candida albicans; details: Candida albicans, antimycotics
Experimental: as §1, §2, §3, §4, §5, §6

C. albicans ATCC 10231 = assay: Microdilution with resazurin, antifungal; format: cell-based, Candida albicans; details: Candida albicans, ATCC10231, antimycotics
Experimental: as §1, §2, §3, §4, §5, §6

A. niger ATCC 16888 = assay: Microdilution with resazurin, antifungal; format: cell-based, Aspergillus niger; details: Aspergillus niger, ATCC16888, antimycotics
Experimental: as §1, §2, §3, §4, §5, §6

CC1(C)S[C@@H]2[C@H](NC(=O)[C@H](N)c3ccccc3)C(=O)N2[C@H]1C(=O)O [AMP, ampicillin]
MBC (E. coli (isolate); read-out: MBC): 1.2 µg/mL (≈ 3.43 µM) | MIC (E. coli (isolate); read-out: MIC): 2.1 µg/mL (≈ 6.01 µM) | MBC (E. coli ATCC 25922; read-out: MBC): 0.5 µg/mL (≈ 1.43 µM) | MIC (E. coli ATCC 25922; read-out: MIC): 0.37 µg/mL (≈ 1.06 µM) | MBC (S. enterica (isolate); read-out: MBC): 1 µg/mL (≈ 2.86 µM) | MIC (S. enterica (isolate); read-out: MIC): 1 µg/mL (≈ 2.86 µM) | MBC (S. Typhimurium (isolate); read-out: MBC): 2 µg/mL (≈ 5.72 µM) | MIC (S. Typhimurium (isolate); read-out: MIC): 2 µg/mL (≈ 5.72 µM) | MBC (P. mirabilis (isolate); read-out: MBC): > 128 µg/mL | MIC (P. mirabilis (isolate); read-out: MIC): > 128 µg/mL | MBC (P. mirabilis ATCC 12453; read-out: MBC): 4 µg/mL (≈ 11.4 µM) | MIC (P. mirabilis ATCC 12453; read-out: MIC): 4 µg/mL (≈ 11.4 µM) | MBC (K. pneumoniae (isolate); read-out: MBC): > 128 µg/mL | MIC (K. pneumoniae (isolate); read-out: MIC): > 128 µg/mL | MBC (K. pneumoniae ATCC 70063; read-out: MBC): > 128 µg/mL | MIC (K. pneumoniae ATCC 70063; read-out: MIC): > 128 µg/mL | MBC (P. aeruginosa (isolate); read-out: MBC): > 128 µg/mL | MIC (P. aeruginosa (isolate); read-out: MIC): > 128 µg/mL | MBC (P. aeruginosa ATCC 27853; read-out: MBC): > 128 µg/mL | MIC (P. aeruginosa ATCC 27853; read-out: MIC): > 128 µg/mL | MBC (B. subtilis (isolate); read-out: MBC): 128 µg/mL (≈ 366 µM) | MIC (B. subtilis (isolate); read-out: MIC): 16 µg/mL (≈ 45.8 µM) | MBC (B. subtilis ATCC 6633; read-out: MBC): 4 µg/mL (≈ 11.4 µM) | MIC (B. subtilis ATCC 6633; read-out: MIC): 3 µg/mL (≈ 8.59 µM) | MBC (B. cereus (isolate); read-out: MBC): 6 µg/mL (≈ 17.2 µM) | MIC (B. cereus (isolate); read-out: MIC): 4 µg/mL (≈ 11.4 µM) | MBC (S. aureus (isolate); read-out: MBC): < 0.06 µg/mL | MIC (S. aureus (isolate); read-out: MIC): < 0.06 µg/mL | MBC (S. aureus ATCC 6538; read-out: MBC): 0.75 µg/mL (≈ 2.15 µM) | MIC (S. aureus ATCC 6538; read-out: MIC): 0.25 µg/mL (≈ 0.715 µM)

O=C1O[C@H]([C@@H](O)CO)C(O)=C1O [Ascorbic acid, ascorbic acid]
DPPH Radical Scavenging Activity (IC50) [1]: 6.31 ± 0.78 ^a,b,c,d µg/mL | Hydroxyl Radical Scavenging Activity (IC50) [2]: 155.91 ± 0.64 ^a,d,e µg/mL | Superoxide Anion Radical Scavenging Activity (IC50) [3]: 105.62 ± 0.84 ^c,d,e,f µg/mL

OC(Cn1cncn1)(Cn1cncn1)c1ccc(F)cc1F [FC, fluconazole]
MFC (S. cerevisiae (isolate); read-out: MFC): 7.81 µg/mL (≈ 25.5 µM) | MIC (S. cerevisiae (isolate); read-out: MIC): 7.81 µg/mL (≈ 25.5 µM) | MFC (C. albicans (isolate); read-out: MFC): 62.5 µg/mL (≈ 204 µM) | MIC (C. albicans (isolate); read-out: MIC): 62.5 µg/mL (≈ 204 µM) | MFC (C. albicans ATCC 10231; read-out: MFC): 31.2 µg/mL (≈ 102 µM) | MIC (C. albicans ATCC 10231; read-out: MIC): 31.2 µg/mL (≈ 102 µM) | MFC (A. niger ATCC 16888; read-out: MFC): 500 µg/mL (≈ 1630 µM) | MIC (A. niger ATCC 16888; read-out: MIC): 250 µg/mL (≈ 816 µM)

O=C(O)c1cc(O)c(O)c(O)c1 [Gallic acid, gallic acid]
DPPH Radical Scavenging Activity (IC50) [1]: 3.72 ± 0.65 ^a,b,c,d,e µg/mL | Hydroxyl Radical Scavenging Activity (IC50) [2]: 45.12 ± 0.51 ^a,b,c,d,e µg/mL | Superoxide Anion Radical Scavenging Activity (IC50) [3]: 68.55 ± 0.45 ^a,b,c,d,e µg/mL

Cc1c(C)c2c(c(C)c1O)CCC(C)(C(=O)O)O2 (centres unmarked) [Trolox, 6-hydroxy-2,5,7,8-tetramethylchroman-2-carboxylic acid]
DPPH Radical Scavenging Activity (IC50) [1]: 10.79 ± 0.83 ^a,b,c,d,e µg/mL | Hydroxyl Radical Scavenging Activity (IC50) [2]: 131.45 ± 0.56 ^c,e µg/mL | Superoxide Anion Radical Scavenging Activity (IC50) [3]: 135.14 ± 0.88 ^a,b,d,e,f µg/mL
